According to patent US20250006334A1, “SIROLIMUS PHARMACOKINETICS GUIDED AND MODEL INFORMED PRECISION DOSING” (Children's Hospital Medical Center, priority 2023, published 2025):

Test: Observed sirolimus trough blood concentration in infant patients under model-informed precision dosing
Type: in vivo, human
Source text: After therapy has been initiated using the initial dose, data may be collected 103 on the impact of the therapy. This may be done, for example, by, 7-14 days after the start of therapy, taking a pre-dose trough blood sample which could then be sent to a lab to determine a sirolimus blood concentration. Alternatively, in some cases additional samples may be taken. For example, in a case where an abbreviated area under the curve PK consult is ordered, data collection 103 may include taking three whole blood samples: a first sample taken 15-30 minutes before a dose, a second sample taken 45-75 minutes after the dose, and a third sample taken 150-210 minutes after the dose. A laboratory could then process the sample(s), and the sirolimus concentration could be reported back. For example, in a case where an application for recommending individualized sirolimus doses was implemented based on this disclosure, the lab could report the results back through an API exposed by a web portal supported by the application, or could send the results back through an external communication channel (e.g., secure email) to the user of the application, and that user could then input the results to the application himself or herself.
However the model refinement 105 is performed, once a refined model is available, it may be applied 106 to determine a personalized dose for the patient. […]

SMILES: CO[C@H]1C[C@@H]2CC[C@@H](C)[C@@](O)(O2)C(=O)C(=O)N2CCCC[C@H]2C(=O)O[C@H]([C@H](C)C[C@@H]2CC[C@@H](O)[C@H](OC)C2)CC(=O)[C@H](C)/C=C(\C)[C@@H](O)[C@@H](OC)C(=O)[C@H](C)C[C@H](C)/C=C/C=C/C=C/1C [sirolimus]
- observed sirolimus trough concentration at six months of age (FIG. 2, infant who started sirolimus at 2 months of age, doses predicted from weight, PMA and concentration measured at three months, target range 10-12 ng/mL): 9.3 ng/mL
- observed sirolimus trough concentration at 6 months (FIG. 3, prediction from age 4 months to 6 months based on concentration at 4 months, weight and PMA, target trough range 10-12 ng/mL): 10.5 ng/mL
